Assay [1] has as its system E-FABP (epidermal fatty acid-binding protein) of keratinocytes. Conditions: Siegenthaler, G. et al. (1994) Biochem. J. 302, 363-371; cited from earlier work.
Assay [2] has as its target T1, arachidonic acid-binding heteromer (non-covalent complex of two MRP8 sub-units, SEQ ID NOs: 1-2, and one MRP14 sub-unit, SEQ ID NOs: 3-4; approx. 34 kDa), isola (Homo sapiens, UniProt P05109+P06702).
T1 construct: conventional steps of protein extraction from biological tissues, more specifically from skin tissues; from tissue; host or cells: psoriasis scales (human keratinocytes), membrane pellet extracted with KCl buffer
T1 sequence (P05109 1-93) 1: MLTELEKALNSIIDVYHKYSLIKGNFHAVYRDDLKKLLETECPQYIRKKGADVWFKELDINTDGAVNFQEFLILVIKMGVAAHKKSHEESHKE
T1 sequence (P05109 1-93) 2: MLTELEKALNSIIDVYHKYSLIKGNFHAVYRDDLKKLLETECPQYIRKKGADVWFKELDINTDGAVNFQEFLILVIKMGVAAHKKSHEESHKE
T1 sequence (P06702 2-114 limits assumed): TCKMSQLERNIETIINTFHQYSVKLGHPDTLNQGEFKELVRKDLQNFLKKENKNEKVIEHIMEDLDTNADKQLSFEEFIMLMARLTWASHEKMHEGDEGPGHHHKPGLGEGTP
Kind of assay: binding of radiolabelled ligand to heteromer by gel filtration (Superose 12, HPLC). The protocol:
Indeed, when a determined quantity of heteromer in solution is incubated in the presence of 600 nM of radiolabelled arachidonic acid, then analyzed through a filtration column over gel [(Superose 12) balanced with a Tris/HCl buffer containing 0.2M NaCl and connected to a HPLC], the radioactive peak that co-elutes elutes at 34 kDa and corresponds to the radiolabelled arachidonic acid-heteromer complex is 1.5 times greater than if the experiment were performed in the same conditions, but with 600 nM of radiolabelled oleic acid.
(§1) More particularly, this heteromer consists of two MRP8 sub-units and one MRP14 sub-unit. These two proteins, MRP8 and MRP14, are in particular described in the Odink et al., (1987) Nature 330, 80-82 publication.
The purification process of the heteromer that is implemented consists specifically of the following steps: approximately 5 g of psoriasis scales are homogenized in 15 ml of Tris/HCl buffer using a homogenizer (Polytron) then, the mixture is centrifuged at 100000 g for 1 hour at 4° C. The pellet is collected and suspended in 5 ml of the same buffer and centrifuged at 10000 g. The supernatant is eliminated. This washing operation is carried out two more times. […]
On the technique in general: Size exclusion chromatography separates by hydrodynamic size, large species first.

Assay [3] has as its target T2, arachidonic acid-binding heteromer (non-covalent complex of two MRP8 sub-units, SEQ ID NOs: 1-2, and one MRP14 sub-unit, SEQ ID NOs: 3-4) (Homo sapiens, UniProt P05109+P06702).
T2 construct: no tag
T2 sequence (P05109 1-93): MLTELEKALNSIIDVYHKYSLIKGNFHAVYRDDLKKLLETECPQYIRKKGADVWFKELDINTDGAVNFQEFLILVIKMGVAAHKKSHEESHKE
T2 sequence (P06702 1-114): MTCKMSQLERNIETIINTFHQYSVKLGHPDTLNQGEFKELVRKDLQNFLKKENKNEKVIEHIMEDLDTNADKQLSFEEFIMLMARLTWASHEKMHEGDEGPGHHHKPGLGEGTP
Nature of the assay: binding of linoleic acid to the heteromer (method not given).

The target of assay [4] is T1, arachidonic acid-binding heteromer (non-covalent complex of two MRP8 sub-units, SEQ ID NOs: 1-2, and one MRP14 sub-unit, SEQ ID NOs: 3-4; approx. 34 kDa), isola. Kind of assay: dissociation constant by carbon-dextran technique with radiolabelled ligand, Scatchard plot. The conditions noted are these: comparison with E-FABP (Siegenthaler et al. 1994). The protocol:
These dissociation constants are obtained by carrying out measurements using the carbon-dextran technique. This technique is as follows: aliquot portions of 0.5 μg of heteromer in solution in 100 μl of Tris buffer (50 mM Tris/HCl, 25 mM NaCl, 2.5 mM EDTA, 1 mM DTT at pH 7.5) containing 0.5% of gelatin and 1% of DMSO are incubated for 1 hour at 37° C. in the presence of increasing quantities of radiolabelled ligand, i.e, 0-10 μM for the oleic acid and the arachidonic acid. Then, each aliquot portion is treated with 50 μl a mixture of carbon-dextran T40® (5% and 0.05% respectively) at 0° C. for 10 minutes, then centrifuged at 10000 g and the radioactivity of the supernatant is measured. A saturation curve is established, and the Kd is calculated using the Scatchard plot.
as §1
The purification process of the heteromer that is implemented consists specifically of the following steps: approximately 5 g of psoriasis scales are homogenized in 15 ml of Tris/HCl buffer using a homogenizer (Polytron) then, the mixture is centrifuged at 100000 g for 1 hour at 4° C. The pellet is collected and suspended in 5 ml of the same buffer and centrifuged at 10000 g. The supernatant is eliminated. […]

Assay [5] concerns the target T3, MRP14 (migration inhibitory factor related protein 14) (human, UniProt P06702 1-114).
T3 construct: Sub-unit of the heteromer, seen by SDS-PAGE of the purified native complex; also called MRP14 sub-unit
T3 sequence: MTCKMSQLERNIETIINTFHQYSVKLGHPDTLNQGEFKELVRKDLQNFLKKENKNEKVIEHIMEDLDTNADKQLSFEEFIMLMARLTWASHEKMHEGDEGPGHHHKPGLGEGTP
Nature of the assay: gel filtration (34 kDa, non-denaturing) against SDS-PAGE of the purified heteromer. The procedure:
The fractions that co-elute with the radioactive peak are gathered, dialyzed through a 20 mM Tris/HCl buffer, pH of 8.0 and the solution is concentrated. This solution is passed through a […] ion exchange column (Resource Q) balanced with the last buffer. The elution in the form of a gradient is performed with this Tris buffer containing 0.5M of NaCl. In the same way as above, the column has been standardized and only the proteins that co-elute with the radioactive peak are gathered, dialyzed through a 100 mM sodium phosphate buffer with a pH of 7.0 and concentrated The last purification step is carried out on a filtration column (Superose 12) balanced with the phosphate buffer. The protein peak that elutes at 34 kDa corresponds to the purified heteromer.

For `CC/C=C\C/C=C\C/C=C\CCCCCCCC(=O)O` [linolenic acid], in assay [1], the “affinity for fatty acids (in words)” value is on record as “strong affinity”. For `CCCCCCCCCCCCCCCCCC(=O)O` [stearic acid], in assay [1], the “affinity for fatty acids (in words)” value is given as “strong affinity”. For `CCCCC/C=C\C/C=C\C/C=C\C/C=C\CCCC(=O)O` [arachidonic acid], the “radioactive peak of ligand-heteromer complex, ratio arachidonic acid to oleic acid” value in assay [2] (600 nM radiolabelled arachidonic acid vs 600 nM radiolabelled oleic acid, peak at 34 kDa) was found to be 1.5 times. The “quantity of arachidonic acid bound relative to oleic acid” value in assay [2] (up to, general statement) is listed as “up to 1.5 times”. For the same molecule, the “affinity for fatty acids (in words)” value in assay [1] is reported as “weak or nonexistent affinity”.

Turning to `CCCCC/C=C\C/C=C\CCCCCCCC(=O)O` [linoleic acid], the “binding (in words)” value in assay [3] is recorded as “binds”. Also, the “affinity for fatty acids (in words)” value in assay [1] was “strong affinity”. As for `CCCCCCCC/C=C\CCCCCCCC(=O)O` [oleic acid], in assay [4], the “dissociation constant in relation to oleic acid compared with that of E-FABP for the same ligand” value is recorded as “less than that of the E-FABP”. For the same molecule, the “affinity for fatty acids (in words)” value in assay [1] is “strong affinity”.

B1: MRP8 (migration inhibitory factor related protein 8) (other)
chain: MLTELEKALNSIIDVYHKYSLIKGNFHAVYRDDLKKLLETECPQYIRKKGADVWFKELDINTDGAVNFQEFLILVIKMGVAAHKKSHEESHKE
notes: Sub-unit of the heteromer, seen by SDS-PAGE of the purified native complex; also called MRP8 sub-unit
B1: the binding result in assay [5] was “binds”.

The values above are taken from US6620790B2, “Isolated arachidonic acid-binding heteromer and its use in cosmetics and pharmaceutics” (Societe L'Oreal S.A., priority 1909, dated 2003).
